Experimental data taken from ChEMBL document CHEMBL3611980, “Design, synthesis of benzocoumarin-pyrimidine hybrids as novel class of antitubercular agents, their DNA cleavage and X-ray studies” (Eur J Med Chem, 2015).
≈ marks a conversion by molar mass, not a printed value. Calls of active or inactive are those of the source. No cut-off for these calls is given here.

How the values were obtained:
[1] = test system: Mycobacterium tuberculosis; assay: Antitubercular activity against Mycobacterium tuberculosis H37Rv ATCC 27294 at 6.25 ug/ml after 5 days by microplate Alamar Blue assay; type: functional; conditions: H37Rv ATCC 27294, 120 h
[2] = Cytotoxicity against African green monkey Vero cells assessed as cell survival at 10 times MIC after 72 hrs by MTT assay; type: cell-based; conditions: chlorocebus sabaeus, read-out: Survival
[3] = test system: Mycobacterium tuberculosis; assay: Antitubercular activity against Mycobacterium tuberculosis H37Rv ATCC 27294 after 5 days by microplate Alamar Blue assay; type: functional; conditions: H37Rv ATCC 27294, 120 h
Bos taurus = species: Bos taurus; assay: Induction of DNA cleavage in calf thymus DNA at 10 ug after 2 hrs by agarose gel electrophoresis method

| Compound | inhibition at 6.25 µg/mL [1] [%] | viability at 72 h, 10 times MIC [2] [%] | MIC [3] [µg/mL] | Activity (Bos taurus) |
| --- | --- | --- | --- | --- |
| COc1ccccc1-c1cc(-c2cc3c(ccc4ccccc43)oc2=O)nc(Cc2ccc(F)cc2)n1 | 98 | 91 | 0.78 (≈ 1.6 µM) | – |
| NNC(=O)c1ccncc1 [ISONIAZID] | 100 | 100 | 0.02 (≈ 0.146 µM) | – |
| O=c1oc2ccc3ccccc3c2cc1-c1cc(-c2ccccc2Cl)nc(Cc2ccc(F)cc2)n1 | 75 | – | – | – |
| Cc1cccc(-c2cc(-c3cc4c(ccc5ccccc54)oc3=O)nc(Cc3ccc(F)cc3)n2)c1 | 76 | – | – | – |
| COc1cccc(-c2cc(-c3cc4c(ccc5ccccc54)oc3=O)nc(Cc3ccc(F)cc3)n2)c1 | 100 | 93 | 0.19 (≈ 0.389 µM) | – |
| O=c1oc2ccc3ccccc3c2cc1-c1cc(-c2ccccc2[N+](=O)[O-])nc(Cc2ccc(F)cc2)n1 | 90 | 17 | 6.25 (≈ 12.4 µM) | – |
| O=c1oc2ccc3ccccc3c2cc1-c1cc(-c2ccc([N+](=O)[O-])cc2)nc(Cc2ccc(F)cc2)n1 | 95 | 39 | 2.81 (≈ 5.58 µM) | – |
| O=c1oc2ccc3ccccc3c2cc1-c1cc(-c2ccccc2Br)nc(Cc2ccc(F)cc2)n1 | 77 | – | – | – |
| O=c1oc2ccc3ccccc3c2cc1-c1cc(-c2ccc(Cl)cc2)nc(Cc2ccc(F)cc2)n1 | 96 | 79 | 1.21 (≈ 2.45 µM) | – |
| O=c1oc2ccc3ccccc3c2cc1-c1cc(-c2cccc([N+](=O)[O-])c2)nc(Cc2ccc(F)cc2)n1 | 91 | 26 | 3.12 (≈ 6.2 µM) | Active |
| COc1ccc(-c2cc(-c3cc4c(ccc5ccccc54)oc3=O)nc(Cc3ccc(F)cc3)n2)cc1 | 100 | 97 | 0.05 (≈ 0.102 µM) | Active |
| Cc1ccccc1-c1cc(-c2cc3c(ccc4ccccc43)oc2=O)nc(Cc2ccc(F)cc2)n1 | 73 | – | – | – |
| O=c1oc2ccc3ccccc3c2cc1-c1cc(-c2cccc(Br)c2)nc(Cc2ccc(F)cc2)n1 | 93 | 64 | 2.81 (≈ 5.23 µM) | – |
| O=c1oc2ccc3ccccc3c2cc1-c1cc(-c2cccc(Cl)c2)nc(Cc2ccc(F)cc2)n1 | 93 | 75 | 1.56 (≈ 3.16 µM) | Active |
| O=c1oc2ccc3ccccc3c2cc1-c1cc(-c2ccc(Br)cc2)nc(Cc2ccc(F)cc2)n1 | 96 | 72 | 1.56 (≈ 2.9 µM) | Active |
| Cc1ccc(-c2cc(-c3cc4c(ccc5ccccc54)oc3=O)nc(Cc3ccc(F)cc3)n2)cc1 | 81 | – | – | – |
